Data on four compounds can be found in patent US20240197735A1, “METHODS AND COMPOSITIONS COMPRISING A BRAF INHIBITOR AND A PD-1 BINDING ANTAGONIST” (Hoffmann-La Roche Inc., priority 2021, published 2024).

The target in one assay is BRAF (Homo sapiens (Human), UniProt P15056). Kind of assay: Kd affinity for BRAF kinase. The format is binding.
The target in a further assay is CRAF (Homo sapiens (Human), UniProt P04049). Kind of assay: Kd affinity for CRAF kinase. The format is binding.
Assay [1] deals with C-terminal Src kinase (CSK) (Homo sapiens (Human), UniProt P41240). In words: Kd affinity for C-terminal Src kinase (selectivity). The format is binding.
For another assay, the target named is BRAF V600E (Homo sapiens (Human), UniProt P15056, V600E). Kind of assay: Kd affinity for BRAF V600E kinase. The format is binding.
The target of assay [2] is lymphocyte-specific tyrosine protein kinase (LCK) (Homo sapiens (Human), UniProt P06239). In words: Kd affinity for lymphocyte-specific tyrosine protein kinase (selectivity). It counts as binding.
Assay [3] concerns P-ERK in HCT116 cells expressing WT BRAF. Kind of assay: HTRF assay for P-ERK determination in HCT116 cells (paradoxical BRAF activation). The note with it: HCT-116 cells; for EC50: read-out: p-ERK EC50 (nM) conc. (nM) at which the compound induces P-ERK activation of 50% of that induced by dabrafenib (Positive control paradox inducer) HCT-116, 1 hour drug incubation, not applicable if activation does not reach 50% of dabrafenib maximum; for Percentage of Maximum paradox inducing effect from dabrafenib: maximum P-ERK signal as percentage of highest dabrafenib signal within dose range tested. The format is cell-based. On the procedure:
(§1) A375 is a cellular cancer model expressing V600E mutated BRAF and HCT116 a cellular cancer model expressing WT BRAF. […] ERK 1,2 phosphorylation (terminal member of the phosphorylation cascade of the MAPK pathway) is hereafter reported as main readout for the activation status of the MAPK pathway. Prior to the assay, A375 and HCT116 cell lines are maintained in DMEM no-phenol red medium supplemented with 10% fetal bovine serum (FBS). […] Briefly, 8000 cells/well in 12 μl media/well are plated in the 384-well plate and left overnight in the incubator (at 37° C. with 5% CO2-humidified atmosphere), the following day the plate is treated in duplicate with test compounds, dabrafenib and PLX8394 (the latter two as controls) at the following final drug concentrations: 10 μM-3 μM-1 μM-0.3 μM-0.1 μM-0.03 μM-0.01 μM-0.003 μM-0.001 μM, all wells are subjected to DMSO normalization and drug incubation occurs for 1 hour. Then, 4 μl of a 4× lysis buffer supplied with the kit are added to the wells, the plate is then centrifuged for 30 second (300 rcf) and incubated on a plate shaker for 1 h at RT.
(§2) At the end of the incubation 4 μL/well of advanced P-ERK antibody solution (prepared according to manufacturer's instruction) followed by 4 μL/well of criptate P-ERK antibody solution (prepared according to manufacturer's instruction) (Cisbio cat #64AERPEH) are added to test wells.
(§3) In order to allow proper data normalization control wells without drug treatment reported are always included in each plate (according to manufacturer's instruction):
(§4) The plate is then centrifuged at 300 rcf for 30 second, sealed to prevent evaporation and incubated overnight in the dark at room temperature.
The plate is then analyzed and fluorescence emission value collected through a Pherastast FSX (BMG Labtech) apparatus at […].
(§5) The obtained fluorescence values are processed according to the formula Ratio=[…]*10000 then the average of the ratio on the blank is subtracted to all values.
Individual points are fitted with either sigmoidal or bell shape curves, and the percentage of activation compared to maximum dabrafenib-mediated activation is determined. The EC50 is the concentration at which activation equal to 50% of the maximum achieved by dabrafenib is obtained.
The Percentage of Maximum paradox inducing effect from dabrafenib is determined by evaluating the percentage at which the test compound induce its maximum P-ERK signal as percentage of the highest signal produced by dabrafenib within the dose range tested.
On the technique in general: In TR-FRET formats the signal depends on donor and acceptor labels being close together.

The test system of assay [4] is P-ERK in A375 cells expressing V600E mutated BRAF. In words: HTRF assay for P-ERK determination in A375 cells (BRAF inhibition). It counts as cell-based. Particulars: Homo sapiens, A-375, 1 h, read-out: pERK IC50 (nM) A375. Here is the method:
as §1, §2, §3, §4, §5
Mean of the normalized points are fitted with sigmoidal curve and IC50 determined.

Assay [5] has as its system YUMM1.7 tumors, immune cell infiltrate (mCD45, mCD3). In words: Immuno-phenotyping of YUMM1.7 tumors by flow cytometry and IHC. It counts as in vivo, mouse (C57/BL6). On the procedure:
FIG. 6 reports the total immune cell (top) and T-cell (bottom) infiltrates in tumors, as quantified through flow cytometry. Total immune cell infiltrate was expressed as percentage of mCD45 positive with respect to the alive cells at day 3 and day 6, and T-cell infiltrate expressed in mCD3 positive cells per mm2.
FIG. 7 reports the immunohistochemistry analysis of the mouse immune cell marker CD45 of tumors treated for 3 days with either Vehicle, Compound Ia at 5 mg/kg (daily), mPD1 at 12.5 mg/kg (single treatment) or a combination thereof.
For the immunohistochemical analysis, female C57/BL6 mice were injected subQ with YUMM1.7 cells. When tumors reached around 250 mm^3 (day 14) mice were treated with either Compound Ia at 1 or 5 mg/kg daily (oral administration), with anti-mouse PD1 at 12.5 mg/kg once (single intraveneous administration) or the combination of Compound Ia and anti-mPD1. Mice were sacrificed and tumors collected upon 3 or five days from the beginning of the treatment and tumors were either digested and utilized for cytofluorimetric analysis of fixed and paraffin embedded.

The test system of assay [6] is P-ERK in A375 BRAF V600E NRAS Q61K cells. In words: P-ERK levels in first generation BRAFi resistant cell model A375 BRAF V600E NRAS Q61K. It counts as cell-based.
Assay [7] relates to YUMM1.7 tumors (BRAF V600E). Kind of assay: In vivo antitumor activity on YUMM1.7 syngeneic allograft tumors. Further details: species or system mouse (C57BL/6). The note with it: combination of Compound Ia (1 or 5 mg/kg PO QD) and mouse anti PD-1 antibody (IV once a week); monitored until day 58.
Experimental: Mice were treated until day 31 and afterwards drug treatments were suspended and mice were monitored for evidences of tumor regrowth.
Mice were treated until day 45 and afterwards drug treatments were suspended and mice were monitored for evidences of tumor regrowth.
In the in vivo studies, female mice 7-9 weeks old (at experiment initiation) of the immunocompetent strain C57BL/6 were utilized. The experiment was performed at the Contract Research Organization (CRO) Covance that sourced mice, performed tumor establishment, drug treatment and tumor monitoring.
For xenograft establishment YUMM1.7 cells were suspended in a media composed of 50% Matrigel and 50% Hank's balanced Salt Solution and injected subcutaneously on the right flanks. When tumor volume reached around 100 mm^3 mice were randomized prior treatment.
Mice were implanted with the cell line YUMM1.7 harboring the BRAF V600E mutation. Upon tumor establishment (100 mm3) mice were randomized and received orally (PO) once per day (QD) either Compound Ia (1 mg/kg or 5 mg/kg), mouse anti PD-1 antibody through IV injection, once a week or the respective combinations of PD-1 and Compound Ia at 1 or 5 mg/kg. […] Upon treatment conclusion mice were monitored until day 58 for signs of tumor relapse.

Sequence of C-terminal Src kinase (CSK) (P41240 whole entry): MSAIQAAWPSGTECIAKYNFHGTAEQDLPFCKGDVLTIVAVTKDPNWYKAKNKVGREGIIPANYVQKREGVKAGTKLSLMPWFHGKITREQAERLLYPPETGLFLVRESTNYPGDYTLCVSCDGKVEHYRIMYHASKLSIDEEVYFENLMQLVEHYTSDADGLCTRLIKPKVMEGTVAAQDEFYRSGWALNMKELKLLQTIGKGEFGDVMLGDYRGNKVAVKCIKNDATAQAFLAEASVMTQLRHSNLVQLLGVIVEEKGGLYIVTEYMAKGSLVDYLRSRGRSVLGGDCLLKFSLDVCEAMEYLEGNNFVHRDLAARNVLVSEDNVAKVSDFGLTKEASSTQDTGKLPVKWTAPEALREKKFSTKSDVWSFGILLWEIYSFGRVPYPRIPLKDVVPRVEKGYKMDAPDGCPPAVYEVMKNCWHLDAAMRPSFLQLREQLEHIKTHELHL
Sequence of lymphocyte-specific tyrosine protein kinase (LCK) (P06239 whole entry): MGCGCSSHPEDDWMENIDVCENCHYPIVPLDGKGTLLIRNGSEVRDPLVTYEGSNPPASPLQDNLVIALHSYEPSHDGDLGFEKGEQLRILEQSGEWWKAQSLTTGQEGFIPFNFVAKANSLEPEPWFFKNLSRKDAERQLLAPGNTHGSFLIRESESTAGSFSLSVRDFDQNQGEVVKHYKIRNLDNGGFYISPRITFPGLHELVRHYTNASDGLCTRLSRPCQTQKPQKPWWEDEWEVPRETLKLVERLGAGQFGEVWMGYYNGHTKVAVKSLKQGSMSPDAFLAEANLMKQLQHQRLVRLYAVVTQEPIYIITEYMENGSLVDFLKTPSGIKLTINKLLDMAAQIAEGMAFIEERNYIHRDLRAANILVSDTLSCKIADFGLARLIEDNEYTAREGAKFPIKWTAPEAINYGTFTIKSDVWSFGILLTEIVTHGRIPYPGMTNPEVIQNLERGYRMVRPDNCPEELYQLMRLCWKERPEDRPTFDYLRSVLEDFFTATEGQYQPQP
Sequence of BRAF V600E (P15056 whole entry V600E): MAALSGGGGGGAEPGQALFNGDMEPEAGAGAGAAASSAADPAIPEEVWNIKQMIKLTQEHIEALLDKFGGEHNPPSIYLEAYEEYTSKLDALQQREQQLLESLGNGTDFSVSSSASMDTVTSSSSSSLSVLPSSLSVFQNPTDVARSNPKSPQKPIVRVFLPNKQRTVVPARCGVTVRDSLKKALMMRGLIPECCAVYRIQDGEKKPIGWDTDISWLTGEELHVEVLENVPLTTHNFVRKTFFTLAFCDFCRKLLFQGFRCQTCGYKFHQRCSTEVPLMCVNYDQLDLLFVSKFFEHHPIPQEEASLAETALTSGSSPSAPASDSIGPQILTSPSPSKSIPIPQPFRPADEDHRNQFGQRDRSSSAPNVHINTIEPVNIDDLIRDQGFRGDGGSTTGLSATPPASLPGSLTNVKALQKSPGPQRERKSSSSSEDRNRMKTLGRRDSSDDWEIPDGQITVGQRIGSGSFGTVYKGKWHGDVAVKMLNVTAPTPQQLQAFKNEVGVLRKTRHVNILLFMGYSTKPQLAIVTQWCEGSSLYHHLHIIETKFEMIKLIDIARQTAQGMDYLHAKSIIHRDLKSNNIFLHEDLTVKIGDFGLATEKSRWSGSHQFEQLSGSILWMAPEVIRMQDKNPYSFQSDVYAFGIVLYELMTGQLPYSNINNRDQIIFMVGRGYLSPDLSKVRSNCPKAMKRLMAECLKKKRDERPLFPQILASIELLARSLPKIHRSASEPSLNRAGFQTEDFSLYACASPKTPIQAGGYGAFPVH
Sequence of CRAF (P04049 whole entry): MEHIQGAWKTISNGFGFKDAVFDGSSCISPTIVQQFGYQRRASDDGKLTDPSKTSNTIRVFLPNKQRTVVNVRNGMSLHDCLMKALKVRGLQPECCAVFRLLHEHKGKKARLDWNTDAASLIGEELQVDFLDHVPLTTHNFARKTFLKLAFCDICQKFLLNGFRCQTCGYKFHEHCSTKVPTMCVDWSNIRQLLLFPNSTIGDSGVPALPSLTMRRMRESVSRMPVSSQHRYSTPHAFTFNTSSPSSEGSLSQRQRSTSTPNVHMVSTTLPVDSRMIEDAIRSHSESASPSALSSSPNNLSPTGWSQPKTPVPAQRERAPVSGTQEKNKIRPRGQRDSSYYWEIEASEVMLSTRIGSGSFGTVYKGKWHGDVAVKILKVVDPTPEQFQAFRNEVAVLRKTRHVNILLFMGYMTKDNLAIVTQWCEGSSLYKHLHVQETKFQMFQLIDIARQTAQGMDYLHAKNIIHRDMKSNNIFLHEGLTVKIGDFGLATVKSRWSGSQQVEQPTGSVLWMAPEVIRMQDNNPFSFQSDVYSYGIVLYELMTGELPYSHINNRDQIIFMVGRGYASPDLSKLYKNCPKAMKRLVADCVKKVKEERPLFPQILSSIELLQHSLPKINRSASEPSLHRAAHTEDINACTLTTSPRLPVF
Sequence of BRAF (P15056 whole entry): as the sequence (P15056 whole entry V600E) above, with E600V counted along it

Regarding `CCCS(=O)(=O)Nc1ccc(F)c(Oc2ccc3ncn(C)c(=O)c3c2)c1C#N` [AR-25], the Kd on BRAF is 0.1 nM; at CRAF it was 0.3 nM; in assay [1], over 40000 nM; at BRAF V600E, 0.2 nM; in [2], over 40000 nM. The EC50 in assay [3] was 9.6 nM. The IC50 in [4] is 1.1 nM.

`CN(C)S(=O)(=O)Nc1ccc(Cl)c(Nc2ccc3ncn(C)c(=O)c3c2)c1F` [AR-30]: the Kd at BRAF was found to be 174 nM; on CRAF, 822 nM; in [1], 8010 nM; on BRAF V600E it was 504 nM; in [2], 10400 nM. The “Percentage of Maximum paradox inducing effect from dabrafenib” value (shortened to “Percentage”) in [3] stood at 59%. Also, the EC50 in [3] was over 1000 nM. Moreover, the IC50 in assay [4] was 406 nM.

Turning to `Cn1cnc2ccc(Nc3c(Cl)ccc(NS(=O)(=O)N4CCCC4)c3F)cc2c1=O` [AR-31], the Kd on BRAF stood at 45.9 nM; at CRAF, 190 nM; in [1] it was 1210 nM; at BRAF V600E, 119 nM; in assay [2], 12000 nM. Further, in assay [3], the “Percentage” value was 51.2%. In assay [3], the EC50 was over 1000 nM. Besides, the IC50 in [4] is 311 nM.

For `Cn1cnc2ccc(Oc3c(F)ccc(NS(=O)(=O)N4CC[C@@H](F)C4)c3C#N)cc2c1=O` [Ex. 1, (3R)-N-[2-cyano-4-fluoro-3-(3-methyl-4-oxo-quinazolin-6-yl)oxy-phenyl]-3-fluoro-pyrrolidine-1-sulfonamide], the antitumor response entry in [5] (YUMM1.7 tumors, Compound Ia oral daily) is reported as “robust antitumor response”. Further, the “recruitment of inflammatory infiltrate in tumors” value in assay [5] (flow cytometry and IHC data) was “triggers recruitment of inflammatory infiltrate”. For the same compound, the “P-ERK reduction in combination with MEKi cobimetinib” value in assay [6] (combination with cobimetinib at fixed dose of 10 nM, compared with encorafenib/binimetinib) is on record as “superior P-ERK reduction”. Further, the “P-ERK inhibition as single agent” value in assay [6] (single agent, compared with Encorafenib) is listed as “potent P-ERK inhibition”. In assay [3], the “Percentage” value is 43.65%. Further, the “number of mice showing disease relapse” value in [7] is recorded as “strong impact”.

Broadly, the Kd is the concentration at which binding is half-saturated. A high value points to a looser complex. Broadly, the EC50 is the concentration that produces a half-maximal response. What is called IC50 is the point on the concentration scale where inhibition reaches its midpoint.
